Results reported in US20110053907A1, “SUBSTITUTED PYRIMIDINES AND TRIAZINES AND THEIR USE IN CANCER THERAPY” (Auckland UniServices Limited, priority 2008, published 2011).
pIC50: −log10 of the molar value.

Experiments:
p110α/p85 = p110α/p85 (Homo sapiens, UniProt P42336); assay: Reversible inhibition of isolated enzyme, lipid kinase assay; type: biochemical; conditions: recombinant enzyme, 100 μM ATP, 1 hr, average of two experiments
Description: Compounds were evaluated for their ability to inhibit Class I PI 3-kinase enzymes p110δ/p85, p110α/p85, and p110β/p85. Reaction mixtures comprising 0.1 μg of a recombinant enzyme, 10 μg of L-α-phosphatidylinositol, and 2× Lipid Kinase Buffer (40 mM Tris-HCl, pH 7.4, 200 mM NaCl, 1 mM EDTA), which contains either DMSO only as a control or the test compound in DMSO (the final DMSO concentration is 1%), were activated by the addition of an ATP mix (5 mM MgCl2, 100 μM ATP, and 0.1 μL [γ^33P]ATP). Reactions were incubated at room temperature for 1 hr, and then stopped by the addition of 1M HCl. The lipids were then extracted using a two step procedure. Firstly, 200 μL of chloroform/methanol (1:1) was added, the biphasic reactions mixed and centrifuged briefly, and the inorganic phase was removed and discarded. Following this, 80 μL of methanol:HCl (1:1) was added and the same procedure followed. The organic phase (70 μL) was then transferred to a clean 1.6 mL tube and the reactions were dried using a Speedvac, with no heating, for 30 min. The reactions were spotted onto TLC plates (Merck Ltd) and developed for 1 hr in propanol-1:2 M acetic acid (13:7). The TLC plates were then dried at room temperature and quantified using a phosphorimager (StormImager, Amersham). Nine compound concentrations were used for each test compound to determine its IC50 value. Each experiment was performed twice and the average IC50 value is used herein.

PI3K isoforms = conditions: literature; cited from earlier work

Chain of p110α/p85 (P42336 whole entry): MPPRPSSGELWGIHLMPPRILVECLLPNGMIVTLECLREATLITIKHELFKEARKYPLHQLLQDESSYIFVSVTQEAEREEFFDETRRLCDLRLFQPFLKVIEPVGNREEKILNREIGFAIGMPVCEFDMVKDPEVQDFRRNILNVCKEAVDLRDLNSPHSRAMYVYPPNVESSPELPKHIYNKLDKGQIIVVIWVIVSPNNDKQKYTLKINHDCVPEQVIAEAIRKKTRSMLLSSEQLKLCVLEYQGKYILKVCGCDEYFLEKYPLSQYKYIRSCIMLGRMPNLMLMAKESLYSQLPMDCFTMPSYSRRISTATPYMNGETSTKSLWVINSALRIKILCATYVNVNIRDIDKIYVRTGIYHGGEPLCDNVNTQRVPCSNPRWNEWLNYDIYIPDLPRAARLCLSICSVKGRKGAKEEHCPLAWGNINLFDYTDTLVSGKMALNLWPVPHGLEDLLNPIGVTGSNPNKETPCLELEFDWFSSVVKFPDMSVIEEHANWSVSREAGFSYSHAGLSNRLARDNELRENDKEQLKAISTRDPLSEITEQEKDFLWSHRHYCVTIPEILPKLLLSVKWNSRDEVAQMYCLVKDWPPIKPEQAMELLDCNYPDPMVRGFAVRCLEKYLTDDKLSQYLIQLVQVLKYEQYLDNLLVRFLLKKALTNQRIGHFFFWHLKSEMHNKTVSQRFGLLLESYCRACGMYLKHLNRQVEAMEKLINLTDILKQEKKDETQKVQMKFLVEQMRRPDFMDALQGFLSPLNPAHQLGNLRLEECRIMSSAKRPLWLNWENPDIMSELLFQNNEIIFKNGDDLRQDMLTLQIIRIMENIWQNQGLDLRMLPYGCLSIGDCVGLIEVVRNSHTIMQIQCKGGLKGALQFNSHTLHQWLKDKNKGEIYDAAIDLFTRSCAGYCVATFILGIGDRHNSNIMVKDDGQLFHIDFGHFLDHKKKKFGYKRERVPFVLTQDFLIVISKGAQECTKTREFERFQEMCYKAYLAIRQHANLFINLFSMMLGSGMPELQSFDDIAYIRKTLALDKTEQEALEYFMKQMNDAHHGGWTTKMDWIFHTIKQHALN
Chain of p110α/p85 (P27986 whole entry partner): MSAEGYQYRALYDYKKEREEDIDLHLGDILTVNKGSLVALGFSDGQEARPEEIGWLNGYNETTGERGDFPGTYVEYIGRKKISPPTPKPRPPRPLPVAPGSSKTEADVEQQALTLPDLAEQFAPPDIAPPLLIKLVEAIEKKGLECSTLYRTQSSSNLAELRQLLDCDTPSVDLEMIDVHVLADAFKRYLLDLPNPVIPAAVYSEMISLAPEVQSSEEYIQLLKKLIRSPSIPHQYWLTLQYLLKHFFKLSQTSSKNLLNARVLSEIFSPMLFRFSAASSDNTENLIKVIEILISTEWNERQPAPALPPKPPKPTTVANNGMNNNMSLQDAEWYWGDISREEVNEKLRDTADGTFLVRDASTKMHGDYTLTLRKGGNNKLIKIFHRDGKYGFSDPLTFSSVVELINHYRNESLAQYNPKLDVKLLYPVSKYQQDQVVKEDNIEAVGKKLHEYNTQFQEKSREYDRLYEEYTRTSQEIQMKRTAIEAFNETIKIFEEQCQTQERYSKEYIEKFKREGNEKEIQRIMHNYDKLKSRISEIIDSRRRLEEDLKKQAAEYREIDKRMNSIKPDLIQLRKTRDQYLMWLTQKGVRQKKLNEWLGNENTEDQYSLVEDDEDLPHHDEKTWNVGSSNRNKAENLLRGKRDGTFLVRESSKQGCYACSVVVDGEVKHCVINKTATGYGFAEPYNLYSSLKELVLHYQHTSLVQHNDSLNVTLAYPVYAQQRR

pIC50 (p110α/p85)	melting point [°C]	Compound	PI3K isoform selectivity (PI3K isoforms)	mode of PI3K inhibition (reversible / irreversible) (PI3K isoforms)
> 7.00	215 to 218	COc1cccc2c1nc(C(F)F)n2-c1cc(N2CCOCC2)nc(N2CCN(S(=O)(=O)CCl)CC2)n1 [Example 16, 1-[2-{4-[(chloromethyl)sulfonyl]-1-piperazinyl}-6-(4-morpholinyl)-4-pyrimidinyl]-2-(difluoromethyl)-4-methoxy-1H-benzimidazole]		
> 7.00	208 to 210	COc1cccc2c1nc(C(F)F)n2-c1nc(N[C@@H]2CCN(C(=O)CCl)C2)nc(N2CCOCC2)n1 [Example 29, N-[(3R)-1-(chloroacetyl)pyrrolidinyl]-4-[2-(difluoromethyl)-4-methoxy-1H-benzimidazol-1-yl]-6-(4-morpholinyl)-1,3,5-triazin-2-amine]		
> 7.00	270 to 273	COc1cccc2c1nc(C(F)F)n2-c1nc(NC2CCN(C(=O)CCl)CC2)nc(N2CCOCC2)n1 [Example 18, N-[1-(chloroacetyl)-4-piperidinyl]-4-[2-(difluoromethyl)-4-methoxy-1H-benzimidazol-1-yl]-6-(4-morpholinyl)-1,3,5-triazin-2-amine]		
6.00 to 7.00	220 to 222	COc1cccc2c1nc(C(F)F)n2-c1cc(N2CCN(S(=O)(=O)CCl)CC2)nc(N2CCOCC2)n1 [Example 15, 1-[6-{4-[(chloromethyl)sulfonyl]-1-piperazinyl}-2-(4-morpholinyl)-4-pyrimidinyl]-2-(difluoromethyl)-4-methoxy-1H-benzimidazole]		
> 7.00	219 to 221	COc1cccc2c1nc(C(F)F)n2-c1nc(NC2CN(C(=O)CCl)C2)nc(N2CCOCC2)n1 [Example 43, N-[1-(chloroacetyl)-3-azetidinyl]-4-[2-(difluoromethyl)-4-methoxy-1H-benzimidazol-1-yl]-6-(4-morpholinyl)-1,3,5-triazin-2-amine]		
> 7.00	229 to 232	COc1cccc2c1nc(C(F)F)n2-c1nc(N2CCOCC2)cc(N2CCN(S(=O)(=O)CCl)CC2)n1 [Example 14, 1-[4-{4-[(chloromethyl)sulfonyl]-1-piperazinyl}-6-(4-morpholinyl)-2-pyrimidinyl]-2-(difluoromethyl)-4-methoxy-1H-benzimidazole]		
> 7.00	241 to 243	COc1cccc2c1nc(C(F)F)n2-c1nc(C2CCN(C(=O)CCl)CC2)nc(N2CCOCC2)n1 [Example 17, 1-[4-[1-(chloroacetyl)-4-piperidinyl]-6-(4-morpholinyl)-1,3,5-triazin-2-yl]-2-(difluoromethyl)-4-methoxy-1H-benzimidazole]		
> 7.00	212 to 215	COc1cccc2c1nc(C(F)F)n2-c1nc(N2CCOCC2)nc(N(C)C2CCN(S(=O)(=O)CCl)CC2)n1 [Example 21, N-{1-[(chloromethyl)sulfonyl]-4-piperidinyl}-4-[2-(difluoromethyl)-4-methoxy-1H-benzimidazol-1-yl]-N-methyl-6-(4-morpholinyl)-1,3,5-triazin-2-amine]		
> 7.00	261 to 263	COc1cccc2c1nc(C(F)F)n2-c1nc(N2CCOCC2)nc(N2CCN(S(=O)(=O)CCl)CC2)n1 [Example 11, 1-[4-{4-[(chloromethyl)sulfonyl]-1-piperazinyl}-6-(4-morpholinyl)-1,3,5-triazin-2-yl]-2-(difluoromethyl)-4-methoxy-1H-benzimidazole]		
> 7.00	250 to 253	COc1cccc2c1nc(C(F)F)n2-c1nc(N2CCOCC2)c2cnn(C3CCN(S(=O)(=O)CCl)CC3)c2n1 [Example 48, 1-{1-[(chloromethyl)sulfonyl]-4-piperidinyl}-6-[2-(difluoromethyl)-4-methoxy-1H-benzimidazol-1-yl]-4-(4-morpholinyl)-1H-pyrazolo[3,4-d]pyrimidine]		
> 7.00	272 to 275	COc1cccc2c1nc(C(F)F)n2-c1nc(N2CCOCC2)nc(N2CC(NC(=O)CCl)C2)n1 [Example 41, 2-chloro-N-{1-[4-[2-(difluoromethyl)-4-methoxy-1H-benzimidazol-1-yl]-6-(4-morpholinyl)-1,3,5-triazin-2-yl]-3-azetidinyl}acetamide]		
> 7.00	190 to 192	COc1cccc2c1nc(C(F)F)n2-c1nc(N[C@@H]2CCCN(C(=O)CCl)C2)nc(N2CCOCC2)n1 [Example 37]		

The remaining lines, values behind:

Compound	pIC50 (p110α/p85)	melting point [°C]	PI3K isoform selectivity (PI3K isoforms)	mode of PI3K inhibition (reversible / irreversible) (PI3K isoforms)
COc1cccc2c1nc(C(F)F)n2-c1nc(N2CCOCC2)nc(N2CCC[C@@H](N(C)C(=O)CCl)C2)n1 [Example 35, 2-chloro-N-{(3R)-1-[4-[2-(difluoromethyl)-4-methoxy-1H-benzimidazol-1-yl]-6-(4-morpholinyl)-1,3,5-triazin-2-yl]piperidinyl}-N-methylacetamide]	> 7.00	201 to 203		
COc1cccc2c1nc(C(F)F)n2-c1nc(N2CCOCC2)nc(N2CC[C@@H](N(C)C(=O)CCl)C2)n1 [Example 27, 2-chloro-N-{(3R)-1-[4-[2-(difluoromethyl)-4-methoxy-1H-benzimidazol-1-yl]-6-(4-morpholinyl)-1,3,5-triazin-2-yl]pyrrolidinyl}-N-methylacetamide]	> 7.00	231 to 233		
COc1cccc2c1nc(C(F)F)n2-c1nc(N2CCOCC2)nc(N2CC[C@@H](NC(=O)CCl)C2)n1 [Example 25, 2-chloro-N-{(3R)-1-[4-[2-(difluoromethyl)-4-methoxy-1H-benzimidazol-1-yl]-6-(4-morpholinyl)-1,3,5-triazin-2-yl]pyrrolidinyl}acetamide]	> 7.00	270 to 275		
Cc1cc(C(C)Nc2ccccc2)c2nc(N3CCOCC3)cc(=O)n2c1 (stereo not drawn) [TGX221]			β-selective	
COc1cccc2c1nc(C(F)F)n2-c1nc(N[C@H]2CCN(C(=O)CCl)C2)nc(N2CCOCC2)n1 [Example 30, N-[(3S)-1-(chloroacetyl)pyrrolidinyl]-4-[2-(difluoromethyl)-4-methoxy-1H-benzimidazol-1-yl]-6-(4-morpholinyl)-1,3,5-triazin-2-amine]	> 7.00	208 to 211		
FC(F)c1nc2ccccc2n1-c1nc(N2CCOCC2)nc(N2CCOCC2)n1 [ZSTK474]			non-selective	
Cc1ccccc1-n1c(Cn2cnc3c(N)ncnc32)nc2cccc(C)c2c1=O [IC87114]			δ-selective	
Oc1cccc(-c2nc(N3CCOCC3)c3oc4ncccc4c3n2)c1 [PI103]			slightly α-selective	
COc1cccc2c1nc(C(F)F)n2-c1nc(N2CCOCC2)nc(N2CC[C@H](N(C)C(=O)CCl)C2)n1 [Example 28, 2-chloro-N-{(3S)-1-[4-[2-(difluoromethyl)-4-methoxy-1H-benzimidazol-1-yl]-6-(4-morpholinyl)-1,3,5-triazin-2-yl]pyrrolidinyl}-N-methylacetamide]	> 7.00	230 to 232		
O=C1NC(=O)/C(=C\c2ccc3nccnc3c2)S1 [AS605240]			γ-selective	
COc1cccc2c1nc(C(F)F)n2-c1nc(N2CCOCC2)nc(N2CCN(C(=O)COS(C)(=O)=O)CC2)n1 [Example 9, 2-{4-[4-[2-(difluoromethyl)-4-methoxy-1H-benzimidazol-1-yl]-6-(4-morpholinyl)-1,3,5-triazin-2-yl]-1-piperazinyl}-2-oxoethyl methanesulfonate]	> 7.00	176 to 180		
COc1cccc2c1nc(C(F)F)n2-c1nc(N2CCOCC2)nc(N2CCC[C@H](NC(=O)CCl)C2)n1 [Example 34, 2-chloro-N-{(3S)-1-[4-[2-(difluoromethyl)-4-methoxy-1H-benzimidazol-1-yl]-6-(4-morpholinyl)-1,3,5-triazin-2-yl]piperidinyl}acetamide]	> 7.00	227 to 229		
C=CCN(/C=C1/C(=O)O[C@H](COC)[C@@]2(C)C1=C(O)C(=O)C1=C2[C@H](OC(C)=O)C[C@]2(C)C(=O)CC[C@@H]12)CC=C [PX-866]			not selective for individual PI3K isoforms	irreversible activity
